Results: the NIST ThermoML archive (doi:10.1021/je0301242)
± gives the expanded uncertainty stated by the source.

Assay: excess molar enthalpy (molar enthalpy of mixing); xn = mol fraction of the nth substance listed
Details: 323.15 K, Liquid, Flow calorimetry

Structure (SMILES): COC [dimethyl ether] + CCC
- excess molar enthalpy (3060 kPa, x2 = 0.0397): 0.022 ± 0.000478 kcal/mol
- excess molar enthalpy (3060 kPa, x2 = 0.0803): 0.0428 ± 0.000717 kcal/mol
- excess molar enthalpy (3060 kPa, x2 = 0.1218): 0.0629 ± 0.000956 kcal/mol
- excess molar enthalpy (3060 kPa, x2 = 0.1643): 0.0813 ± 0.000956 kcal/mol
- excess molar enthalpy (3060 kPa, x2 = 0.2076): 0.0978 ± 0.0012 kcal/mol
- excess molar enthalpy (3060 kPa, x2 = 0.252): 0.112 ± 0.00143 kcal/mol
- excess molar enthalpy (3060 kPa, x2 = 0.2974): 0.124 ± 0.00143 kcal/mol
- excess molar enthalpy (3060 kPa, x2 = 0.3439): 0.135 ± 0.00167 kcal/mol
- excess molar enthalpy (3060 kPa, x2 = 0.3914): 0.143 ± 0.00167 kcal/mol
- excess molar enthalpy (3060 kPa, x2 = 0.4401): 0.147 ± 0.00167 kcal/mol
- excess molar enthalpy (3060 kPa, x2 = 0.49): 0.15 ± 0.00167 kcal/mol
- excess molar enthalpy (3060 kPa, x2 = 0.5411): 0.149 ± 0.00167 kcal/mol
- excess molar enthalpy (3060 kPa, x2 = 0.5935): 0.145 ± 0.00167 kcal/mol
- excess molar enthalpy (3060 kPa, x2 = 0.6472): 0.137 ± 0.00167 kcal/mol
- excess molar enthalpy (3060 kPa, x2 = 0.7023): 0.126 ± 0.00143 kcal/mol
- excess molar enthalpy (3060 kPa, x2 = 0.7587): 0.109 ± 0.00143 kcal/mol
- excess molar enthalpy (3060 kPa, x2 = 0.8167): 0.088 ± 0.0012 kcal/mol
- excess molar enthalpy (3060 kPa, x2 = 0.8762): 0.0609 ± 0.000956 kcal/mol
- excess molar enthalpy (3060 kPa, x2 = 0.9373): 0.0299 ± 0.000478 kcal/mol

Structure (SMILES): C=CC [propene] + COC
- excess molar enthalpy (3000 kPa, x1 = 0.0427): 0.00574 ± 0.000239 kcal/mol
- excess molar enthalpy (3000 kPa, x1 = 0.0861): 0.0112 ± 0.000478 kcal/mol
- excess molar enthalpy (3000 kPa, x1 = 0.1301): 0.0155 ± 0.000478 kcal/mol
- excess molar enthalpy (3000 kPa, x1 = 0.1748): 0.0201 ± 0.000478 kcal/mol
- excess molar enthalpy (3000 kPa, x1 = 0.2203): 0.0241 ± 0.000478 kcal/mol
- excess molar enthalpy (3000 kPa, x1 = 0.2664): 0.028 ± 0.000478 kcal/mol
- excess molar enthalpy (3000 kPa, x1 = 0.3133): 0.0306 ± 0.000478 kcal/mol
- excess molar enthalpy (3000 kPa, x1 = 0.361): 0.0332 ± 0.000478 kcal/mol
- excess molar enthalpy (3000 kPa, x1 = 0.4095): 0.0354 ± 0.000717 kcal/mol
- excess molar enthalpy (3000 kPa, x1 = 0.4587): 0.0368 ± 0.000717 kcal/mol
- excess molar enthalpy (3000 kPa, x1 = 0.5088): 0.0373 ± 0.000717 kcal/mol
- excess molar enthalpy (3000 kPa, x1 = 0.5597): 0.037 ± 0.000717 kcal/mol
- excess molar enthalpy (3000 kPa, x1 = 0.6115): 0.0363 ± 0.000717 kcal/mol
- excess molar enthalpy (3000 kPa, x1 = 0.6641): 0.0347 ± 0.000717 kcal/mol
- excess molar enthalpy (3000 kPa, x1 = 0.7177): 0.0318 ± 0.000478 kcal/mol
- excess molar enthalpy (3000 kPa, x1 = 0.7722): 0.0277 ± 0.000478 kcal/mol
- excess molar enthalpy (3000 kPa, x1 = 0.8277): 0.0222 ± 0.000478 kcal/mol
- excess molar enthalpy (3000 kPa, x1 = 0.8841): 0.016 ± 0.000478 kcal/mol
- excess molar enthalpy (3000 kPa, x1 = 0.9415): 0.00789 ± 0.000239 kcal/mol
